This passage reports inhibition, IC50 and tumor growth inhibition results from US20110263647A1 (AMGEN INC., priority 2009, published 2011).

Structures can show the parent of a compound that is named as a salt. A value given as a limit tells only on which side of the number the result lay.

Series [1] deals with T1, CYP3A4 (Homo sapiens, UniProt P08684).
T1 construct: tissue XenoTech LLC Lot 0610351; host or cells: pooled human liver microsomes
Nature of the series: CYP3A4 inhibition assay (midazolam, pooled human liver microsomes). Type of series: in vitro ADME. To be noted: pH 7.4, probe midazolam (2.5 μM), test compound 3 μM, human liver microsomes 0.1 mg/mL. As for the experimental part:
Midazolam was obtained from BD Gentest (Waltham, Mass.); 1′ hydroxy midazolam and 1-hydroxy bufuralol maleate were obtained from Ultrafine Chemicals (Manchester, UK); bufuralol HCl, ketoconazole, quinidine, potassium phosphate, and NADPH were obtained from Sigma (St. Louis, Mo.). Test compounds were prepared at 10 mM concentration in DMSO (Mallinckrodt Inc., St. Louis, Mo.). NADPH was prepared at 10 mM concentration in a pH 7.4 buffer (8.3 mg/mL 66.7 mM potassium phosphate). Midazolam was prepared at 1 mM concentration in deionized water (Amgen, Thousand Oaks, Calif.), and bufuralol was prepared at 2 mM concentration in deionized water. A stock solution of ketoconazole was prepared at 37 mM concentration in DMSO, and quinidine was prepared at 500 uM concentration in DMSO. Formic acid in acetonitrile (0.05%, ACN) was used as a quench solution (Sigma-Aldrich, St. Louis, Mo.). All solvents used for LC/MS were of chromatographic grade. Pooled human liver microsomes (Lot 0610351) were purchased from XenoTech LLC, (Lenexa, Kans.).
Pooled human liver microsomes (0.1 mg/mL) were incubated at 37° C. in a phosphate buffer (66.7 mM potassium phosphate at pH 7.4) with the selective CYP3A substrate midazolam at a concentration of 2.5 μM in the presence and absence of test compound (3 μM). The reaction was started with the addition of NADPH (1 mM final concentration). The reaction was stopped after 10 minutes by addition of formic acid in acetonitrile. 1′-Hydroxymidazolam metabolite formation was measured by an HPLC MS detection method (mobile phases were 0.1% AcOH in 5% MeOH, and 0.1% AcOH in 95% MeOH; the HPLC column was an Onyx Monolithic C18 CHO-7645 HPLC column obtained from Phenomenex; Shimadzu LC-10ADVP equipped Biomek FX Liquid handling system and CTC Analytics PAL well auto-sampler; Mass spectrometer: Applied Biosystems API 3000 using Analyst 1.4.1 software). Inhibition was determined by the ratio of the amount of 1′-hydroxy midazolam metabolite formed in the presence of test compound to the amount of metabolite found in the absence of test compound Inhibition was measured relative to the rate of formation of 1′-hydroxy midazolam incubated at 2.5 μM without test compound.

In series [2] the target is T2, PKBα (Homo sapiens, UniProt P31749).
T2 construct: fused on or other part: His6 tag is likely on the Upstate products
T2 sequence (P31749 118-472 limits assumed): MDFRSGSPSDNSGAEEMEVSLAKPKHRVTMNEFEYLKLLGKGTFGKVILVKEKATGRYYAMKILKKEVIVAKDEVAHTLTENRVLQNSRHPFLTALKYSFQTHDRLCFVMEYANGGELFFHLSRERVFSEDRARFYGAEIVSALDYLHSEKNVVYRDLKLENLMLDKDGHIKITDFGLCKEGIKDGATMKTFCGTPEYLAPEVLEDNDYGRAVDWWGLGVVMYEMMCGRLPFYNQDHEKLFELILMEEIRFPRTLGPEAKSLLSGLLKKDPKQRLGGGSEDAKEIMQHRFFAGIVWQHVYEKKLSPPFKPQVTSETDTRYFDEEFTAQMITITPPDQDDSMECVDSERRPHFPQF
Nature of the series: PKB kinase assay (P33-labeled ATP, peptide substrate, filter plate). Type of series: biochemical. The following applies: with respect to PKBα. An excerpt: The kinase assay for evaluating PKB activity comprises active PKB enzymes, a PKB specific substrate, and P^33-labeled ATP. Two form of PKBα enzymes were used, the full length PKBα and a kinase domain of PKBα with pleckstrin domain (amino acids 1-117) deleted. Both PKB enzymes were obtained from Upstate cell signaling solutions (Cat.# 14-276 and 14-341). The PKB substrate used is a synthetic peptide (ARKRERTYSFGHHA (SEQ ID NO: 1)) as described in Obata et al., J. Biol. Chem. 275 (46), 36108-36115 (2000). The phosphorylated substrate was captured by a phosphocellulose membrane filter plate (MILLIPORE) and measured by a Wallac Microbeta liquid scintillation counter (Perkin Elmer). Table 1 provides the IC50 values obtained for each of the examples with respect to PKBα.

For series [3], the system named is U87MG tumors. Nature of the series: U87MG xenograft tumor growth model. Type of series: in vivo, Athymic nude mice. To be noted: oral 10, 30, 60 and 100 mg/kg/day; 13 days (Example 2), 10 days and 17 days (Example 18). As for the experimental part: The effect of PKB inhibition on tumor growth in vivo was assessed in an established U87MG xenograft model for Examples 2 and 18. Athymic nude mice bearing U87MG tumors (approximately 200 mm^3) in the right flank were treated with the compound orally at the dosage of 10, 30, 60, and 100 mg/kg/day (n=10) for 13 days (Example 2) and for 10 days and 17 days (Example 18). Tumor volume and body weight were measured twice per week. Data were expressed as means plus or minus standard errors and plotted as a function of time. Statistical significance of the effect was evaluated by Repeated Measures Analysis of Variance (RMANOVA) followed by Scheffe post hoc testing for multiple comparisons.

T1 sequence (P08684 whole entry): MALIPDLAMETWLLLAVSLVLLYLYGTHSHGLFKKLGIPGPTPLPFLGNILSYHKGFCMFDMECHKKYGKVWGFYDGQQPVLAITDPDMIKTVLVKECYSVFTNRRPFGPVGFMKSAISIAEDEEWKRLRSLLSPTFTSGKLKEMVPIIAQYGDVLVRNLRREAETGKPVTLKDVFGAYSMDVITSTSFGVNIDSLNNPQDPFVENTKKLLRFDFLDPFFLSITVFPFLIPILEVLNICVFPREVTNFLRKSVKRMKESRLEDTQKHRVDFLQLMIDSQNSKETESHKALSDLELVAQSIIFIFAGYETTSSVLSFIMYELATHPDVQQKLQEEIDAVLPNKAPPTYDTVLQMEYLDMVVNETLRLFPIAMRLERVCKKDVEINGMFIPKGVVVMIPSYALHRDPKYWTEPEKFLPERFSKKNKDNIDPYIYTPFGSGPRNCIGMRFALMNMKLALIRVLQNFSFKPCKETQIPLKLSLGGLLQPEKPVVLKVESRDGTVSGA

As a reminder, the inhibition is the percentage by which the read-out fell short of the control. One may read the IC50 as the concentration needed to halve the response being measured. Low values mean greater potency in that assay, high ones weaker potency in that assay. The molecule `N[C@H](CNc1ncc(-c2ccc3cnc(F)cc3c2)s1)CN1CCC(C(F)(F)F)CC1` [Example 25, N—((R)-2-Amino-3-(4-(trifluoromethyl)piperidin-1-yl)propyl)-5-(3-fluoroisoquinolin-6-yl)thiazol-2-amine] had an inhibition at 10 min, 3 μM in series [1] of 48%. Besides, in series [2], the 50% inhibitory concentration (IC50) lay in the range of 50 to 1000 nM.
As for `N[C@H](CNc1ncc(-c2ccc3cnc(F)cc3c2)s1)Cc1ccc(C(F)(F)F)nc1` [Example 2, (2S)—N-(5-(3-Fluoro-6-isoquinolinyl)-1,3-thiazol-2-yl)-3-(6-(trifluoromethyl)-3-pyridinyl)-1,2-propanediamine], the tumor growth inhibition entry in series [3] was “Dose dependent tumor growth inhibition”. In addition, the inhibition at 10 min, 3 μM in series [1] is 75%. In addition, the IC50 in series [2] is under 50 nM.
In series [1], `N[C@H](CNc1ncc(-c2ccc3cnc(F)cc3c2)s1)[C@@H](CO)c1ccc(C(F)(F)F)cc1` [Example 33, (2S,3S)-3-Amino-4-(5-(3-fluoroisoquinolin-6-yl)thiazol-2-ylamino)-2-(4-(trifluoromethyl)phenyl)butan-1-ol] had an inhibition at 10 min, 3 μM of 48%. In addition, the half-inhibitory concentration (IC50) in series [2] was under 50 nM.
The like results for `N[C@H](CNc1ncc(-c2ccc3cnc(F)cc3c2)s1)Cc1ccc(Cl)c(F)c1` [Example 44, (2S)-3-(4-Chloro-3-fluorophenyl)-N-1-(5-(3-fluoro-6-isoquinoliny)-1,3-thiazol-2-yl)-1-2-propanediamine] were, in that order, 48% and under 50 nM.
The like results for `CC(F)(F)c1ccc([C@H](O)[C@H](N)CNc2ncc(-c3ccc4cnc(F)cc4c3)s2)cc1` [Example 38, (1S,2R)-2-Amino-1-(4-(1,1-difluoroethyl)phenyl)-3-((5-(3-fluoro-6-isoquinolinyl)-1,3-thiazol-2-yl)amino)-1-propanol trifluoroacetate] were, in that order, 9% and under 50 nM.
For `COCc1nc(NC[C@@H](N)Cc2ccc(C(F)(F)F)nc2)sc1-c1ccc2cnc(F)cc2c1` [Example 18, N—((S)-2-Amino-3-(6-(trifluoromethyl)pyridin-3-yl)propyl)-5-(3-fluoroisoquinolin-6-yl)-4-(methoxymethyl)thiazol-2-amine], the tumor growth inhibition entry in series [3] is recorded as “Dose dependent tumor growth inhibition”. Besides, in series [1], the inhibition at 10 min, 3 μM was 0%. In addition, the IC50 in series [2] is under 50 nM.
The molecule `N[C@H](CCc1ncc(-c2ccc3cnc(F)cc3c2)s1)[C@@H](O)c1ccc(C(F)(F)F)cc1` [Example 36, (1S,2R)-2-Amino-4-(5-(3-fluoroisoquinolin-6-yl)thiazol-2-yl)-1-(4-(trifluoromethyl)phenyl)butan-1-ol trifluoroacetate] registered an inhibition at 10 min, 3 μM in series [1] of 0%. The concentration for half-maximal inhibition (IC50) in series [2] is under 50 nM.
`CC(F)(F)c1ccc(C[C@H](N)CNc2ncc(-c3ccc4cnc(F)cc4c3)s2)cn1` [Example 7, N—((S)-2-Amino-3-(6-(1,1-difluoroethyl)pyridin-3-yl)propyl)-5-(3-fluoroisoquinolin-6-yl)thiazol-2-amine] had an inhibition at 10 min, 3 μM in series [1] of 13%. Further, in series [2], the IC50 is under 50 nM.
`N[C@H](CNc1ncc(-c2ccc3cnc(F)cc3c2)s1)Cc1ccc(C(F)(F)F)cc1` [Example 4, N—((S)-2-Amino-3-(4-(trifluoromethyl)phenyl)propyl)-5-(3-fluoroisoquinolin-6-yl)thiazol-2-amine trifluoroacetate] registered an inhibition at 10 min, 3 μM in series [1] of 0%. The concentration for half-maximal inhibition (IC50) in series [2] is under 50 nM.
The like results for `CC(F)(F)c1ccc(C[C@H](N)CCc2ncc(-c3ccc4cnc(F)cc4c3)s2)cn1` [Example 50] were, in that order, 21% and under 50 nM.
The matching figures for `C[C@@H](c1ccc(C(F)(F)F)cc1)[C@H](N)CNc1ncc(-c2ccc3cnc(F)cc3c2)s1` [Example 10, N-((2S,3S)-2-Amino-3-(4-(trifluoromethyl)phenyl)butyl)-5-(3-fluoroisoquinolin-6-yl)thiazol-2-amine]: 0% and under 50 nM.
